Assay results taken from the supplement of paper PMC6470124.

Key:
[1] = absolute recovery over vacuum-assisted evaporative concentration; higher = better recovery; conditions: enrichment method: VEC
How it was run: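 Samples of influent (6 mL), effluent (15 mL) and surface or nanopure water (60 mL) were spiked with standards before or after concentration, or left unspiked, at 200 ng/L (nanopure/surface) or 1000 ng/L (wastewater), adjusted by class and compound. Concentration was by evaporation at 55 °C and 20 mbar to about 0.3 mL, followed by adjustment to 0.4 mL and centrifugation. Internal standards were then added for LC-HRMS/MS analysis. Absolute recovery was (response ratio pre − unspiked)/(post − unspiked) × 100, using averages of ≥ 2 replicates.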

[2] = LC retention time (Atlantis T3, 5-95% MeOH gradient, 0.1% formic acid); higher = more retained / less polar
How it was run: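 Retention times refer to reference standards measured by liquid chromatography with high-resolution tandem mass spectrometry. Separation was on an Atlantis T3 C18 column (3 × 150 mm, 3 μm) at 0.3 mL/min with a 5 to 95% methanol gradient over 17.5 min, both solvents carrying 0.1% formic acid. Positive and negative electrospray were run separately on a QExactive Plus, and TraceFinder peak integration (5 ppm tolerance, at least three points per peak) was reviewed by hand.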

[3] = absolute recovery over mixed-bed multilayer solid-phase extraction; higher = better recovery; conditions: enrichment method: SPE
How it was run: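 Elution from a three-layer mixed-bed cartridge used basic followed by acidic ethyl acetate/methanol, after loading either 1000 mL of unfiltered nanopure water or 100–250 mL of wastewater that had been set to pH 6.5 and glass-fibre filtered. Standards went in before or after extraction, or were left out, at 200 ng/L (water) or 1000 ng/L (wastewater), with class exceptions. Internal standards were added afterwards, and measurement was by liquid chromatography with high-resolution tandem mass spectrometry in both ionisation modes. For absolute recovery, background-corrected response ratios of pre-spiked samples were compared with those of post-spiked samples and averaged over at least two replicates.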

absolute recovery ([1]; wastewater effluent) [%] | absolute recovery ([1]; wastewater influent) [%] | LC retention time [2] [min] | absolute recovery ([3]; nanopure water) [%] | absolute recovery ([3]; surface water) [%] | absolute recovery ([3]; wastewater effluent) [%] | absolute recovery ([3]; wastewater influent) [%] | SMILES
85.1 | 117 | 3.58 |  |  |  |  | O=C([O-])C[NH+](CCC[NH+](CC(=O)[O-])CC(=O)[O-])CC(=O)[O-] [1-3-Propylene-diaminotetraacetic-acid]
102 | 99.8 | 8.59 |  |  |  |  | CC(C)(C)[NH2+]CC(O)c1ccc(O)c(CO)c1 (stereo not drawn) [Albuterol]
98.2 | 97.4 | 15.1 |  |  |  |  | COc1ccc(CC[NH+](C)CCCC(C#N)(c2ccc(OC)c(OC)c2)C(C)C)cc1OC (stereo not drawn) [Verapamil]
114 | 118 | 15 |  |  |  |  | O=C(CCC[NH+]1CCC(O)(c2ccc(Cl)cc2)CC1)c1ccc(F)cc1 [Haloperidol]
 |  | 4.93 |  |  |  |  | CC(=O)NCCCS(=O)(=O)[O-] [Acamprosat]
 |  | 22.9 |  |  |  |  | CCC(C)(C)C(=O)OC1CC(C)C=C2C=CC(C)C(CCC3CC(O)CC(=O)O3)C21 (stereo not drawn) [Simvastatin]
107 | 106 | 10.5 |  |  |  |  | COc1cc(Cc2c[nH+]c(N)nc2N)cc(OC)c1OC [Trimethoprim]
 |  | 4.36 | 23.9 |  |  |  | [NH3+]CCc1ccc(O)c(O)c1 [Dopamine]
 |  | 11.7 | 101 | 93.6 | 90.2 | 103 | Cc1c(NC=O)c(=O)n(-c2ccccc2)n1C [4-Formylaminoantipyrin (=4-FAA)]
 |  | 18.3 | 68.5 |  | 71.8 | 95.1 | Oc1ccc(C(F)(F)F)cc1 [4-(Trifluoromethyl)phenol]
 |  | 12.6 | 53.8 | 67.1 |  |  | [NH3+]C(CC(=O)N1CCn2c(nnc2C(F)(F)F)C1)Cc1cc(F)c(F)cc1F (stereo not drawn) [Sitagliptin]
105 | 73.2 | 2.85 |  |  |  |  | [NH3+]C(CO)(CO)CO [Trometamol]
102 | 113 | 13 |  |  |  |  | Cc1cc([N-]S(=O)(=O)c2ccc(N)cc2)no1 [Sulfamethoxazol]
 |  | 4.35 |  |  |  |  | Nc1ccc2c(S(=O)(=O)[O-])cccc2c1S(=O)(=O)[O-] [2-amino-1-5-napthalenedisulfonic-acid]
105 | 106 | 14.5 |  |  |  |  | O=C(NCC1CCCC[NH2+]1)c1cc(OCC(F)(F)F)ccc1OCC(F)(F)F (stereo not drawn) [Flecainid]
102 | 98 | 14.4 |  |  |  |  | C[NH+]1CCN(C2=Nc3cc(Cl)ccc3Nc3ccccc32)CC1 [Clozapin]

absolute recovery ([1]; wastewater effluent) [%] | absolute recovery ([1]; wastewater influent) [%] | LC retention time [2] [min] | absolute recovery ([3]; nanopure water) [%] | absolute recovery ([3]; surface water) [%] | absolute recovery ([3]; wastewater effluent) [%] | absolute recovery ([3]; wastewater influent) [%] | SMILES
 |  | 9.43 | 93.2 |  |  |  | CC1=CC(=O)[N-]S(=O)(=O)O1 [Acesulfam]
 |  | 6.21 | 113 |  |  |  | O=c1ncnc2[nH][nH]cc1-2 [Allopurinol]
 |  | 20.9 | 83.1 | 97.1 | 86.1 | 37.3 | O=C(c1ccccc1)c1ccc(Cl)cc1 [4-Chlorobenzophenone]
 |  | 23.3 |  | 80 | 95.4 |  | CN(CC(=O)[O-])S(=O)(=O)C(F)(F)C(F)(F)C(F)(F)C(F)(F)C(F)(F)C(F)(F)C(F)(F)C(F)(F)F [N-MeFOSAA]
101 | 99.7 | 18 |  |  |  |  | CC(C)CN(CC(O)C(Cc1ccccc1)NC(=O)OC1COC2OCCC12)S(=O)(=O)c1ccc(N)cc1 (stereo not drawn) [Darunavir]
 |  | 11.9 | 96 | 84.5 | 87.5 |  | CC(=O)Nc1c(C)n(C)n(-c2ccccc2)c1=O [4-Acetamidoantipyrin (=N-Acetyl-4-Aminoantipyrin, 4-AAA)]
 |  | 19.7 | 106 |  |  |  | O=[N+]([O-])c1ccc(C2OC2c2ccc([N+](=O)[O-])cc2S(=O)(=O)[O-])c(S(=O)(=O)[O-])c1 (stereo not drawn) [1-2-Bis-(4-4-dinitro-2-2-disulfonic acid-phenylethylenoxide]
 |  | 12.9 | 118 | 101 | 102 | 91.4 | COC(=O)c1ccccc1S(N)(=O)=O [2-Aminosulfonyl-benzoicacid-methylester]
 |  | 12.4 |  |  |  |  | O=C([O-])C(F)(F)C(F)(F)C(F)(F)C(F)(F)F [PFPA]
 |  | 5.47 | 83.2 | 82 | 78.5 | 86.1 | C[NH2+]CC(O)c1cccc(O)c1 (stereo not drawn) [Phenylephrine]
 |  | 15.5 | 57.8 | 66.6 | 48.4 | 68.9 | Oc1ccc(C=Cc2cc(O)cc(O)c2)cc1 [Resveratrol]
 |  | 7.57 | 82 | 69.4 | 73.7 |  | Nc1ncnc2c1ncn2C1OC(CO)C(O)C1O (stereo not drawn) [Adenosine]
 |  | 2.76 |  |  |  |  | OCC(O)C(O)C(OC1OC(CO)C(O)C(O)C1O)C(O)CO [D-Lactitol]
 |  | 10.2 |  |  |  |  | Nc1c(I)c(C(=O)[O-])c(I)c(C(=O)[O-])c1I [5-Amino-2-4-6-triiodoisophthalic-acid]
 |  | 3.27 | 40.2 | 12.7 | 15.9 | 26.6 | C[NH2+]CC(O)c1ccc(O)c(O)c1 (stereo not drawn) [Epinephrine]
 |  | 22.3 |  | 50.3 | 61.7 |  | C[N-]S(=O)(=O)C(F)(F)C(F)(F)C(F)(F)C(F)(F)C(F)(F)C(F)(F)C(F)(F)C(F)(F)F [N-MeFOSA]

SMILES | absolute recovery ([1]; wastewater effluent) [%] | absolute recovery ([1]; wastewater influent) [%] | LC retention time [2] [min] | absolute recovery ([3]; nanopure water) [%] | absolute recovery ([3]; surface water) [%] | absolute recovery ([3]; wastewater effluent) [%] | absolute recovery ([3]; wastewater influent) [%]
CC1(C)SC2C([NH3+])C(=O)N2C1C(=O)[O-] (stereo not drawn) [6-Aminopenicillanic-acid] | 90.3 | 86.7 | 4.79 |  |  |  | 
O=C([O-])C(F)(F)C(F)(F)C(F)(F)C(F)(F)C(F)(F)F [PFHxA] | 95.2 | 89.4 | 18.8 |  |  |  | 
CCOP(=O)(OCC)Oc1cc(C)nc(C(C)C)n1 [Diazoxon] | 85.6 | 95.3 | 18.8 |  |  |  | 
CCOC(=O)Nc1cccc(OC(=O)Nc2ccccc2)c1 [Desmedipham D] |  |  | 18.6 | 90.8 | 117 | 106 | 76.2
NC(=O)N=C(N)N [Guanylurea] |  |  | 3.13 | 42.6 |  |  | 
O=C([O-])C(F)(F)C(F)(F)C(F)(F)C(F)(F)C(F)(F)C(F)(F)C(F)(F)F [PFOA] | 87.3 | 90 | 20 |  |  |  | 
CCc1cc(C)cc(CC)c1-c1c(OC(=O)C(C)(C)C)n2n(c1=O)CCOCC2 [Pinoxaden] | 51.6 | 10.7 | 21.2 |  |  |  | 
Nc1nc(N)[nH+]c(N)n1 [Melamin] |  |  | 3.5 | 21.3 |  |  | 
CCCN(CCC)C(=O)SCc1ccccc1 [Prosulfocarb] |  |  | 11.5 | 38.9 | 35.1 | 43.2 | 
CCC(=O)C(CC(C)[NH+](C)C)(c1ccccc1)c1ccccc1 (stereo not drawn) [Methadon] | 105 | 100 | 15.9 |  |  |  | 
O=c1ccc(=O)[nH][n-]1 [Maleic-hydrazide] |  |  | 5.88 |  | 12.8 |  | 
N#Cc1nn(-c2c(Cl)cc(C(F)(F)F)cc2Cl)c(N)c1C(F)(F)F [Fipronil-desulfinyl] |  |  | 20.2 | 139 |  |  | 
CC[N-]S(=O)(=O)C(F)(F)C(F)(F)C(F)(F)C(F)(F)C(F)(F)C(F)(F)C(F)(F)C(F)(F)F [N-EtFOSA] |  |  | 22.8 |  | 57.6 | 66.9 | 
CNC(=O)Oc1cc(C)c(S(C)=O)c(C)c1 (stereo not drawn) [Methiocarb-sulfoxide] |  |  | 13.7 | 75.7 | 83 | 77.8 | 58.2
C#CCN1C(=O)COc2cc(F)c(N3C(=O)C4=C(CCCC4)C3=O)cc21 [Flumioxazin] |  |  | 18.8 | 99.7 | 77.4 | 91.6 | 64
